Measured values: ChEMBL document CHEMBL3785049, “Fragment-based discovery of inhibitor scaffolds targeting the metallo-β-lactamases NDM-1 and VIM-2” (Bioorg Med Chem Lett, 2016)

Key:
[1] = target: T1, Metallo-beta-lactamase type 2 (Klebsiella pneumoniae, UniProt C7C422); assay: Binding affinity to His-tagged Klebsiella pneumoniae NDM-1 expressed in Escherichia coli BL21-AI cells by surface plasmon resonance assay
[2] = target: T1, Metallo-beta-lactamase type 2; assay: Inhibition of His-tagged Klebsiella pneumoniae NDM-1 expressed in Escherichia coli BL21-AI cells using imipinem as substrate
[3] = target: T1, Metallo-beta-lactamase type 2; assay: Competitive inhibition of His-tagged Klebsiella pneumoniae NDM-1 expressed in Escherichia coli BL21-AI cells using imipinem as substrate
[4] = target: Metallo-beta-lactamase type 2 (Klebsiella pneumoniae) (UniProt C7C422); assay: Inhibition of His-tagged Klebsiella pneumoniae NDM-1 expressed in Escherichia coli BL21-AI cells at 500 uM using imipinem as substrate
Sequence of Metallo-beta-lactamase type 2 (Klebsiella pneumoniae) (C7C422 whole entry): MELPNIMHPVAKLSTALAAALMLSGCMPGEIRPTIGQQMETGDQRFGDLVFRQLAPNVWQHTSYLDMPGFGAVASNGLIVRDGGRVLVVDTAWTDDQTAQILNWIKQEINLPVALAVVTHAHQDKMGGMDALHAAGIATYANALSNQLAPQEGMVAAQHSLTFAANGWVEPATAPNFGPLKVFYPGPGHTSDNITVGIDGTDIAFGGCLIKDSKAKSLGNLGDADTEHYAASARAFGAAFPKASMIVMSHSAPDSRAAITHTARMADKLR

[5] = target: Metallo-beta-lactamase type 2 (Klebsiella pneumoniae) (UniProt C7C422); assay: Ratio of IC50 for inhibition of His-tagged Klebsiella pneumoniae NDM-1 expressed in Escherichia coli BL21-AI cells using imipinem as substrate to Kd for Binding affinity to His-tagged Klebsiella pneumoniae NDM-1 expressed in Escherichia coli BL21-AI cells by surface plasmon resonance assay

T1 sequence (C7C422 whole entry): as above

For `C[C@@H](O)[C@H]1C(=O)N2C(C(=O)O)=C(S[C@@H]3CN[C@H](C(=O)N(C)C)C3)[C@H](C)[C@H]12` [MEROPENEM], which Kd [1] is on record?
The Kd was 11 µM.

Which results are given for `N#Cc1coc2ccccc2c1=O`?
IC50 ([2]; read-out: IC50): 480 µM; Ki [3]: 186 µM; inhibition [4]: > 20%; Ratio [5]: 1.5; Kd [1]: 181 µM

Which results are given for `CCCc1ccc(C(=O)CCC(=O)O)cc1`?
IC50 ([2]; read-out: IC50): 3110 µM; inhibition [4]: > 20%; Ratio [5]: 1.5; Kd [1]: 2100 µM

What does the source list for `O=C(O)CSc1ccnc2cc(Cl)ccc12`?
IC50 ([2]; read-out: IC50): 1240 µM; IC50 ([2]; read-out: pIC50 (converted)): 1070 µM; inhibition [4]: > 20%; Ratio [5]: 1.5; Kd [1]: 804 µM

With `O=C(O)CCCc1c[nH]c2ccccc12` as the compound, how does the IC50 ([2]; read-out: IC50) read?
Its IC50 is 1950 µM.

And the inhibition [4]?
Its inhibition is greater than 20%.

What about the Ratio [5] of the same compound?
The Ratio was 1.5.

And the Kd [1]?
The Kd was 806 µM.
